According to patent publication EP0502205A1, “CHALCONE DERIVATIVE AND ULTRAVIOLET SCREENING COSMETIC” (NIPPON HYPOX LABORATORIES INCORPORATED, priority 1990, dated 1992):

Columns and labels:
[1] = Ultraviolet light absorption maximum and absorbance in ethanol solution; assay type: physicochemical; settings: for Absorbance 300 nm / Absorbance 350 nm / Absorbance UVmax: concentration of 10 μg/ml in an ethanol solution; for Absorbance UVmax: at UVmax; for UVmax: ultraviolet light absorption maximum
sunburn [2] = assay: Ultraviolet screening test (ointment on skin exposed to direct sunlight); assay type: in vivo, normally healthy persons
Description: 10 Milligrams of the ointment containing 1 wt.% of the known chalcone derivative in Example 14, obtained in Example 15, 10 mg of an ointment containing 1 wt.% of p-aminobenzoic acid as a control, obtained in the same manner as in Example 15 except for the use of p-aminobenzoic acid in place of the above known chalcone derivative (to be abbreviated as AO in Table 3 which will follow), and 10 mg of the same hydrophilic ointment as that used in Example 15 (to be abbreviated as HO in Table 2 which will follow) were respectively applied to the femoral region of each of normally healthy persons (10 persons) such that these became circular forms having nearly the same size. Then, these applied portions were exposed to direct sunlight outdoors in fine weather for 2 hours and 30 minutes.
After the exposure, each applied portion was visually observed. The portions where clear sunburn was recognized were taken as +, the portions where slight sunburn was recognized were taken as ±, and the portions where almost no change was recognized were taken as -. The test substances were so evaluated on their ultraviolet screening effects.
The ointment containing 1 wt.% of the novel chalcone derivative of Example 1, obtained in Example 15, the ointment containing 1 wt.% of the novel chalcone derivative of Example 1, the ointment containing 1 wt.% of the novel chalcone derivative of Example 2, the ointment containing 1 wt.% of the novel chalcone derivative of Example 4, the ointment containing 1 wt.% of the novel chalcone derivative of Example 6 and the ointment containing 1 wt.% of the known chalcone derivative of Example 9 were respectively similarly tested on their ultraviolet screening effects. However, the exposure time outdoors in fine weather was set for 1 hour. […]

[3] = system: lipid peroxidation reaction of liver microsome; assay: Cell protection activity test (inhibition of lipid peroxidation, thiobarbituric acid method); assay type: biochemical, rat; settings: 37° C 20 minutes, n = 3 - 5; for Inhibition ratio 10^-5 concentration: 10 µM; for Inhibition ratio 10^-4M concentration: final concentration 10^-4M, 100 µM
Description: Cell impairment caused by a radical reaction of an organic compound is known as one of optical affections on the skin.
First, rat liver microsome was obtained by a conventional method, and then, suspended in 1.15 % KCl to prepare a microsome suspension.
Then, the above microsome suspension in an amount of 2 mg as protein was added to a tris-HCl buffer (pH 7.4) containing NADPH (final concentration 0.2 mM), ADP (final concentration 1 mM) and FeCl₃ (final concentration 10 µM). And, 10 µl of a dimethylformamide (DMF) solution of a test compound was added so that the total amount was 1 ml, and the resultant mixture was warmed at 37° C for 20 minutes. The test compound was added such that the final concentration became 10⁻⁴M or 10⁻⁵M.
Thereafter, the amount of formed peroxidation lipid was measured by a thiobarbituric acid method. The inhibition activity of the test compound is expressed in terms of an inhibition ratio (%) in comparison with a control group. […] In addition, in the control group, 10 µl of DMF was used in place of 10 µl of the DMF solution of the test compound.

sunburn [4] = assay: Ultraviolet screening test (ointment on skin exposed to direct sunlight); assay type: in vivo, normally healthy persons; remark: listed apart in the source
[5] = system: rat abdominal cavity exudate mast cell; assay: Anti-allergic activity test (inhibition of free histamine from mast cell, concanavalin A as freeing agent); assay type: cell-based, SD rat; settings: 10 min, concentration of 0.03 mM, n = 5, read-out: free histamine inhibition ratio
Description: At first, an abdominal cavity exudate mast cell of an SD rat was obtained by a conventional method. Then, the above-obtained abdominal cavity mast cell was floated on a Locke solution, and a test substance in a predetermined concentration and phosphatidylcerine (final concentration 3 µg/ml) were added. The mixture was warmed up to 37° C, and after concanavalin A as a freeing agent was added, the mixture was maintained at 37° C for 10 minutes. Thereafter, the reaction solution was centrifugally separated to a sediment portion and a supernatant portion, and the histamine amount of each of these portions was quantitatively determined by an orthophthalaldehyde method. In addition, as a test substance, a dimethylformamide solution (final concentration 0.03 mM) of 3 mM 2',4'-dihydroxychalcone and a DMF solution (final concentration 0.03 mM) of an anti-inflammatory drug (Azelastine) were used. The free histamine ratio was calculated on the basis of the following equation. In control, the solvent alone was added. [formula] Ps: Histamine amount in sediment portion Pr: Histamine amount in supernatant portion. The free histamine inhibition ratio of the test substance was calculated on the basis of the following equation. [formula] S: Free histamine ratio when test substance is added. C: Free histamine ratio when no test substance is added (control). […]

[6] = system: inflammation induced by an egg-white albumin-adjuvant system; assay: Anti-inflammatory activity test (swelling of subplantar region of right hind paw); assay type: in vivo, SD rats; settings: oral, 10 mg/weight-kg, 0.5 hour before inflammation inducer; measured 0.5, 1, 2, 3 and 4 hours after; Fig. 1
Description: As a test group, a comparison group and a control group, 5 male SD rats weighing 180 to 220 g were used per group. Each rat was measured for a size (volume) of the subplantar region of the right hind paw.
This aluminum hydroxide was used as an adjuvant. Per rat, a solution obtained by suspending 4 mg of the adjuvant and 0.2 mg of egg-white albumin in 0.1 ml of pertussis vaccine was prepared as an inflammation inducer.
0.5 Hour after the administration, the inflammation inducer was intracutaneously administered into the subplantar region of the right hind paw of each rat to induce swelling.
Then, 0.5, 1, 2, 3 and 4 hours after the administration of the inflammation inducer, each rat was measured for a size (volume) of the subplantar region of the right hind paw by volumetry. […] [formula] Ps: Measurement value of volume of subplantar region at a measurement time (average of the group). Po: Measurement value of volume of subplantar region before administration of inflammation inducer (average of the group).
Each rat of the control group was orally administered with a 10 % Nikkol-containing physiological saline solution in place of the 10 % Nikkol-containing physiological saline solution containing 2',4'-dihydroxychalcone. Thereafter, the same procedures as those for the test group were repeated to determine the swelling as a group.

[7] = system: notal skins of Hartley guinea pigs; assay: Safety test (ointment on skin under adhesive plaster, histological observation); assay type: in vivo; settings: 10 mg ointment containing 5 wt.%, covered with adhesive plaster for 24 hours or 72 hours
Description: 10 milligrams of the ointment containing 5 wt.% of the known chalcone derivative of Example 14, obtained in Example 16, was applied to the notal skins of Hartley guinea pigs, and the applied portions were covered with an adhesive plaster for 24 hours or 72 hours.

[8] = ointment containing 1 wt.%, exposure time outdoors 1 hour
[9] = 10 mg ointment containing 1 wt.%, femoral region, 10 persons, direct sunlight 2 hours and 30 minutes

Structure (SMILES) | Absorbance 300 nm [1] | Absorbance 350 nm [1] | Absorbance UVmax [1] | UVmax [1] [nm] | numbers of persons + (Clear sunburn was recognized) (sunburn [2]; [8]) [persons] | Inhibition ratio 10^-5 concentration [3] | Inhibition ratio 10^-4M concentration [3] | numbers of persons + (Almost no change) (sunburn [4]; [8]) [persons] | inhibition at 30 µM [5] [%] | inhibition of swelling [6] | histological comparison of skin of applied portion and skin of normal portion [7] | ultraviolet absorption spectrum (in words) ([1]; Fig. 2) | numbers of persons + (Clear sunburn was recognized) (sunburn [2]; [9]) [persons] | numbers of persons - (Slight sunburn was recognized) (sunburn [2]; [9]) [persons] | numbers of persons + (Almost no change) (sunburn [4]; [9]) [persons]
Cc1ccc(/C=C/C(=O)c2ccc(O)cc2O)cc1 [Example 9] | 0.40~0.55 | 0.90~1.00 | 0.80~1.10 | 352 | 0 | 25% | 90 % or more | 4 |  |  |  |  |  |  | 
CN1CCCC(n2nc(Cc3ccc(Cl)cc3)c3ccccc3c2=O)CC1 (stereo not shown) [Azelastine, reference compound] |  |  |  |  |  |  |  |  | 20.8 ± 4.2 |  |  |  |  |  | 
O=C(/C=C/c1ccc(O)c(O)c1)c1ccc(O)cc1 [Example 13] | 0.35~0.50 | 0.85~1.00 | 1.00~1.15 | 365 |  | 84% | 90 % or more |  |  |  |  |  |  |  | 
O=C(/C=C/c1ccc(C(F)(F)F)cc1)c1ccc(O)cc1O [Example 5] | 0.60~0.75 | 0.50~0.65 | 0.60~0.80 | 305 |  | 15% | 90 % or more |  |  |  |  |  |  |  | 
O=C(/C=C/c1ccc(F)cc1)c1ccc(O)cc1O [Example 4] | 0.50~0.65 | 0.60~0.70 | 0.55~0.70 | 346 | 0 | 90 % or more | 90 % or more | 4 |  |  |  |  |  |  | 
COc1ccc2c(c1)c(CC(=O)O)c(C)n2C(=O)c1ccc(Cl)cc1 [indomethacin, reference compound] |  |  |  |  |  |  |  |  |  | significantly inhibited swelling |  |  |  |  | 
O=C(/C=C/c1ccccc1)c1ccc(O)cc1 [Example 8] | 1.40~1.50 | 0.75~0.85 | 1.80~2.10 | 318 |  | 64% | 90 % or more |  |  |  |  |  |  |  | 
O=C(/C=C/c1ccccc1F)c1ccc(O)cc1O [Example 3] | 0.70~0.85 | 0.80~0.95 | 0.80~1.10 | 320 |  | 90 % or more | 90 % or more |  |  |  |  |  |  |  | 
O=C(/C=C/c1cccc(F)c1)c1ccc(O)cc1O [Example 1, 2',4'-dihydroxy-3-fluoro-chalcone] | 0.70~0.85 | 0.70~0.85 | 0.80~0.95 | 317 | 0 | 90 % or more | 90 % or more | 4 |  |  | no histological difference |  |  |  | 
O=C(/C=C/c1ccccc1)c1ccc(O)cc1O [Example 14, 2',4'-dihydroxychalcone] | 0.65~0.75 | 0.60~0.70 | 0.70~0.80 | 306 |  | 90 % or more | 90 % or more |  | 56.9 ± 12.8 | significantly inhibited swelling | no difference between these two portions | has an absorption band in most of the wavelength regions of Dorno's ray and long-wavelength ultraviolet light | 0 | 1 | 9
O=C(/C=C/c1ccc([N+](=O)[O-])cc1)c1ccc(O)cc1O [Example 11] | 0.60~0.75 | 0.75~0.90 | 0.80~0.90 | 320 |  | 62% | 90 % or more |  |  |  |  |  |  |  | 
O=C(/C=C/c1cccc(F)c1)c1ccc(O)cc1 [Example 2] | 0.90~1.00 | 0.45~0.55 | 0.90~1.20 | 318 | 0 | 16% | 90 % or more | 4 |  |  |  |  |  |  | 
O=C(/C=C/c1ccc(Cl)cc1)c1ccc(O)cc1O [Example 10] | 0.85~1.00 | 1.15~1.30 | 1.20~1.40 | 322 |  | 32% | 90 % or more |  |  |  |  |  |  |  | 
CCOc1ccccc1/C=C/C(=O)c1ccc(O)cc1O [Example 7] | 0.55~0.70 | 0.85~1.10 | 1.10~1.30 | 365 |  | 90 % or more | 90 % or more |  |  |  |  |  |  |  | 
O=C(/C=C/c1ccc2c(c1)OCO2)c1ccc(O)cc1 [Example 12] | 0.30~0.45 | 0.85~1.00 | 0.90~1.00 | 355 |  |  | 90 % or more |  |  |  |  |  |  |  | 
CCOc1ccc(/C=C/C(=O)c2ccc(O)cc2O)cc1 [Example 6] | 0.20~0.40 | 0.60~0.75 | 0.80~0.95 | 364 | 0 | 30% | 90 % or more | 3 |  |  |  |  |  |  | 
